Assay results taken from PMC8486872, “A rational blueprint for the design of chemically-controlled protein switches” (Nature Communications, 2021).
Where “and” joins values, the source holds several entries; their conditions need not be identical. Equal values may be shown once.

System: SEAP and Luciferase expression in HEK293T cells
Assay: SIMO designer cells (AIR-1/2-GEMS + CDH-1/2-TF)
Assay type: cell-based
Set-up: Bottom (best-fit value) / Top (best-fit value) / Span (best-fit value): unit not given here
Description: Fig. 5 Orthogonal chemical switches enable implementation of multi-input multi-output control modes in mammalian cells. a Scheme of multi-inputs multi-outputs (MIMO) designer cells where two drugs control two different outputs. b, c Cells were co-transfected with AIR-1/2-GEMS and CDH-3-TF regulate SEAP and Luciferase expression, respectively. […] AIR-1/2-GEMS coupled with SEAP expression circuits were co-transfected with CDH-1/2-TF circuits which control the Luciferase production. Respective drug concentrations ranged from 0.001 nM to 1 µM. All values presented are mean ± s.d. of three replicates and curves were fitted by four-parameters nonlinear regression. b, c, e, f, h, i Source data are available in the source data file.
Finally, we engineered SIMO cells (Fig. 5g) using two designed switches that produce ON and OFF responses upon exposure to the same drug. We transfected cells with combinations of AIR-GEMS and CDH-TFs which controlled the expression of the reporter proteins SEAP and Luciferase, respectively. […] Therefore, computational design expanded the repertoire of protein switches controlled by the same compounds that can be used to simultaneous turn ON and OFF synergistic outputs. […]
AIR-1-GEMS coupled with SEAP expression circuits (i) and CDH-1-TF circuits which control the Luciferase production (j). j-k) Quantification of SEAP and Luciferase activities under Drug-2. AIR-2-GEMS coupled with SEAP expression circuits (k) and CDH-2-TF circuits which control the Luciferase production (l). b-k) Each data point represents the mean of n = 3 biological replicates, and the dose-dependent curve were fitted using four-parameter nonlinear regression.

[1] = Fig S13j, AIR-2-GEMS control SEAP expression only, Drug-2 3.16 nM
[2] = Fig S13j, AIR-2-GEMS control SEAP expression only, Drug-2 10 nM
[3] = Fig S13j, AIR-2-GEMS control SEAP expression only, Drug-2 100 nM
[4] = Fig S13j, AIR-2-GEMS control SEAP expression only, Drug-2 316 nM
[5] = Fig S13j, AIR-2-GEMS control SEAP expression only, Drug-2 1000 nM
[6] = sheet Figure5i, SEAP, four-parameter fit

For CC1(C)CCC(CN2CCN(c3ccc(C(=O)NS(=O)(=O)c4ccc(NCC5CCOCC5)c([N+](=O)[O-])c4)c(Oc4cnc5[nH]ccc5c4)c3)CC2)=C(c2ccc(Cl)cc2)C1 [Drug-2, Venetoclax], the “SEAP and Luciferase outputs in SIMO cells” value (0.001 nM to 1 µM) was “simultaneously activated SEAP production and suppressed the expression of Luciferase”, the SEAP (Fig5i, turn ON (title: via AIR-1-GEMS), 0.001 nM) was 11.0539 U/L and 12.4374 U/L and 11.7528 U/L and the SEAP (Fig5i, turn ON (title: via AIR-1-GEMS), 0.005 nM) was 14.3953 U/L and 10.7601 U/L and 8.34 U/L. The SEAP (Fig5i, turn ON (title: via AIR-1-GEMS), 0.05 nM) was 12.0377 U/L and 10.3343 U/L and 7.481 U/L, the SEAP (Fig5i, turn ON (title: via AIR-1-GEMS), 0.5 nM) was 13.1482 U/L and 9.328 U/L and 7.802 U/L and the SEAP (Fig5i, turn ON (title: via AIR-1-GEMS), 1 nM) was 16.8267 U/L and 13.7148 U/L and 13.9654 U/L. The SEAP (Fig5i, turn ON (title: via AIR-1-GEMS), 5 nM) was 12.4083 U/L and 18.0777 U/L and 19.7017 U/L, the SEAP (Fig5i, turn ON (title: via AIR-1-GEMS), 10 nM) was 32.3034 U/L and 32.696 U/L and 36.5671 U/L and the SEAP (Fig5i, turn ON (title: via AIR-1-GEMS), 50 nM) was 48.8555 U/L. For the same compound, the SEAP (Fig5i, turn ON (title: via AIR-1-GEMS), 100 nM) was 61.1746 U/L and 72.5404 U/L, the SEAP (Fig5i, turn ON (title: via AIR-1-GEMS), 500 nM) was 94.0018 U/L and 86.0577 U/L and the SEAP (Fig5i, turn ON (title: via AIR-1-GEMS), 1000 nM) was 105.374 U/L and 86.4725 U/L. The SEAP (Fig S13j, AIR-2-GEMS control SEAP expression only, Drug-2 0.01 nM) was 269 U/L and 225 U/L and 167 U/L, the SEAP (Fig S13j, AIR-2-GEMS control SEAP expression only, Drug-2 1 nM) was 225 U/L and 173 U/L and 167 U/L and the Luciferase [1] was 18.3864 RLU and 14.0122 RLU and 11.0547 RLU. For the same compound, the SEAP [1] was 199 U/L and 215 U/L and 123 U/L, the Luciferase [2] was 59.3143 RLU and 64.1927 RLU and 53.9121 RLU and the SEAP [2] was 143 U/L and 145 U/L and 125 U/L. For the same compound, the SEAP (Fig S13j, AIR-2-GEMS control SEAP expression only, Drug-2 31.6 nM) was 149 U/L and 123 U/L, the Luciferase [3] was 277.707 RLU and 262.611 RLU and 223.323 RLU and the SEAP [3] was 157 U/L and 127 U/L and 107 U/L. The Luciferase [4] was 280.311 RLU and 280.175 RLU and 202.801 RLU, the SEAP [4] was 177 U/L and 117 U/L and 123 U/L and the Luciferase [5] was 203.844 RLU and 222.434 RLU and 194.549 RLU. The SEAP [5] was 191 U/L and 169 U/L and 179 U/L, the SEAP (Fig S13k, CDH-2-TF control Luciferase expression only, Drug-2 0.01 nM) was 77283 U/L and 94282 U/L and 94549 U/L and the SEAP (Fig S13k, CDH-2-TF control Luciferase expression only, Drug-2 0.1 nM) was 83949 U/L and 102019 U/L and 91551 U/L. The SEAP (Fig S13k, CDH-2-TF control Luciferase expression only, Drug-2 1 nM) was 97527 U/L and 93132 U/L and 98408 U/L, the SEAP (Fig S13k, CDH-2-TF control Luciferase expression only, Drug-2 3.16 nM) was 96858 U/L and 87221 U/L and 87443 U/L and the SEAP (Fig S13k, CDH-2-TF control Luciferase expression only, Drug-2 10 nM) was 78643 U/L and 87229 U/L and 90599 U/L. The SEAP (Fig S13k, CDH-2-TF control Luciferase expression only, Drug-2 31.6 nM) was 80585 U/L and 86321 U/L and 73406 U/L, the SEAP (Fig S13k, CDH-2-TF control Luciferase expression only, Drug-2 100 nM) was 64234 U/L and 74136 U/L and 75517 U/L and the SEAP (Fig S13k, CDH-2-TF control Luciferase expression only, Drug-2 316 nM) was 47807 U/L and 51555 U/L and 52806 U/L. The SEAP (Fig S13k, CDH-2-TF control Luciferase expression only, Drug-2 1000 nM) was 34743 U/L and 30667 U/L and 26001 U/L, the IC50 (Homo sapiens, HEK-293T, sheet Figure5i, SEAP column (turn ON), four-parameter fit, given as IC50, read-out: IC50 (best-fit value)) was 5.24 nM and the “Bottom (best-fit value)” value [6] was 28.34. For the same compound, the “HillSlope (best-fit value)” value [6] was 1.403, the “Span (best-fit value)” value [6] was 390.7 and the “Top (best-fit value)” value [6] was 419. The “logIC50 (best-fit value)” value (sheet Figure5i, SEAP, four-parameter fit, drug in nM) was 0.7193.
